This note sets out measurements from PubChem BioAssay AID179 (DTP/NCI, 2004).

The assay concerns CEM cells HIV-1 protection, formazan growth assay. Put plainly: NCI AIDS Antiviral Assay. To be noted: for IC50: measured here: growth of uninfected CEM cells. The gist of the method: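 Screen of anti-HIV-1 activity in human CEM cells using a formazan-based growth measurement at five drug concentrations. Hits with 50% or greater protection were repeated, and confirmation required reproducible complete protection.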

Several values for one entry are separate records, joined by “and”; a condition that tells them apart may be missing. Equal values may be shown once. Activity calls are given as the source filed them.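 How the source made its calls: active means compounds giving half or more protection of infected cells from virus-caused growth loss, again on retest; inactive means the rest.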

For orientation: EC50 means the midpoint of the concentration-response curve. The term IC50 denotes the concentration that gives 50% inhibition. As to `CCC(C#N)N(Cc1cccc(CN(C(C)=O)C(C#N)CC)c1)C(C)=O` (configuration not stated), the EC50 was > 200 µM and the IC50 is 191 µM.
In the case of `O=C(CNC(=O)OCc1ccccc1)NCCCCC(NC(=O)OCc1ccccc1)C(=O)NC(CCCCNC(=O)CNC(=O)OCc1ccccc1)C(=O)OCc1ccccc1` (configuration not stated), the EC50 was > 100 µM and the IC50 is > 100 µM.
In the case of `N=C1N=C(N)c2cc3c(cc21)SCCSCCCSCCS3`, the EC50 is > 50.1 µM and the IC50 came out at 8.51 µM.
The like results for `Cc1cc2c(cc1C)C(=O)/C(=N/Nc1ccc(F)cc1)CCO2` were, in that order, > 200 µM and 178 µM.
The like results for `Clc1ccc(-c2onc3ccc(Br)cc23)cc1` were, in that order, > 162 µM and > 162 µM.
For the molecule `Clc1ccccc1C(n1cc(Br)cn1)n1cc(Br)cn1`, the outcome was inactive.
With `CNC(=O)N1N[C@H](c2ccccc2)[C@@H]1c1ccccc1`, the EC50 is > 200 µM and the IC50 amounted to 42.7 µM.
For `O=C(N/N=C/c1cccc([N+](=O)[O-])c1)C(=O)N/N=C/c1cccc([N+](=O)[O-])c1` the same measures were > 100 µM and > 100 µM.
Regarding `COC(=O)c1nc2c(C)c(O)c(Oc3c(C)c(O)c(O)c([C@H](C)CCC=C(C)C)c3O)c([C@H](C)CCC=C(C)C)c2o1`, the EC50 is > 200 µM and the IC50 is 7.94 µM.
The like results for `Cc1ccc(NC2=CC(=O)C(=O)c3ccccc32)cc1` were, in that order, > 27.5 µM and 20.4 µM.
Consider `N#C/C(=C\c1ccc(O)c(O)c1)C(=O)NCc1cccc(CNC(=O)/C(C#N)=C/c2ccc(O)c(O)c2)c1`, for which the EC50 is > 200 µM and the IC50 is 10.2 µM.
Regarding `Cc1cn(C2CC(O)C(CO)C2C)c(=O)[nH]c1=O` (configuration not stated), the EC50 was > 200 µM and the IC50 was > 200 µM.
Consider `N/N=C1\C(=O)N(c2ccc(Cl)cc2Cl)C(=O)C(=O)C1c1nc2ccccc2o1` (configuration not stated), for which the result was inactive.
As to `O=C(Nc1c(Cl)cc([N+](=O)[O-])cc1Cl)C(=O)C1C(=O)NC(=S)NC1=O`, the EC50 was > 89.1 µM and the IC50 is > 89.1 µM.
`Oc1ccc(Nc2nc(Cl)c3[nH]cnc3n2)cc1`: the EC50 is > 200 µM and the IC50 was determined as 107 µM.
The like results for `CC(C)=CCc1c(O)cc(O)c2c1OC(c1ccc(O)cc1)C(O)C2=O` (configuration not stated) were, in that order, > 363 µM and 17.8 µM.
For the molecule `COc1nc(N=P(c2ccccc2)(c2ccccc2)c2ccccc2)cc(=O)[nH]1`, the result was inactive.
In the case of `CC(C)(C)CP(CCP(C)(C)=S)CC(C)(C)C`, the EC50 was > 44.7 µM and the IC50 was > 44.7 µM.
`Nc1ccc2oc3cccc(N)c3c(=O)c2c1`: the EC50 is > 22.9 µM and the IC50 is > 22.9 µM.
`C=C(C)CN(CC(=C)C)C(=N)OCC1CCCO1` (configuration not stated): the EC50 is > 200 µM and the IC50 is > 200 µM.
Regarding `CCCCOCc1cc(CN2CCN(C)CC2)c(O)c2ncccc12`, the EC50 was > 145 µM and the IC50 was 8.71 µM.
For `CN(C)CCC(=O)c1ccc(Cl)cc1` the same measures were > 107 µM and 27.5 µM.
For `COc1cc2c(cc1OC)C(c1ccccc1CCCCl)=NCC2` the same measures were > 200 µM and 75.9 µM.
The like results for `OC(C#CCN1CCCC1)(c1ccccc1)c1ccccc1Cl.[C-]#[O+].[C-]#[O+].[C-]#[O+].[C-]#[O+].[C-]#[O+].[C-]#[O+].[Co].[Co]` (configuration not stated) were, in that order, > 200 µM and 5.25 µM.
On to `COc1c2c(c3c(c1CCC(=O)O)OC(C)(C)C=C3)OC(C)(C)C=C2`, for which the EC50 was > 200 µM and the IC50 turned out to be 138 µM.
For `COC(=O)C12c3ccccc3C(c3ccccc31)c1c(N=O)ccc(NO)c12` the same measures were > 19.5 µM and > 19.5 µM.
On to `COc1cc2c(c(OC)c1OC)-c1ccc(O)cc1C(NC(C)=O)CC2` (configuration not stated), for which the EC50 is > 2 µM and the IC50 was determined as 0.0603 µM.
Turning to `Cc1nc2ccncc2[nH]1`, the EC50 was > 269 µM and the IC50 came to 191 µM.
As for `CN1C(=S)C2=C(c3ccccc3)N(C)C(=S)C2=C1c1ccccc1`, the EC50 was 102 µM and the IC50 is > 200 µM.
For the molecule `S=c1[nH]nc(Cn2c3ccc(Br)cc3c3nc4ccccc4nc32)o1`, the EC50 was > 200 µM and the IC50 turned out to be 49 µM.
The like results for `O=C(CCN1CCCCC1)c1cc2cc([N+](=O)[O-])ccc2oc1=O` were, in that order, > 219 µM and 112 µM.
The like results for `Cc1ccc(S(=O)(=O)NC(=O)NCCCSSCCCNC(=O)NS(=O)(=O)c2ccc(C)cc2)cc1` were, in that order, > 200 µM and > 200 µM.
For `COc1ccc(C2=C(N)c3c(Cl)cccc3C2=O)cc1` the same measures were > 200 µM and 155 µM.
Regarding `O=C1CC(c2ccc(O)cc2)Oc2cc(O)cc(O)c21` (configuration not stated), the EC50 is > 200 µM; the IC50 was > 100 µM and 87.1 µM.
On to `COc1ccc(-n2c(N)c(C#N)c(C#N)c2-c2ccccc2)cc1`, for which the EC50 was > 200 µM and the IC50 stood at 12 µM.
For `CCCCc1ccc(Nc2nc3c(ncn3C3CC(O)C(CN=[N+]=[N-])O3)c(=O)[nH]2)cc1` (configuration not stated) the same measures were > 200 µM and > 200 µM.
For `CCn1c(=O)c2nc(SC)sc2n(-c2ccccc2)c1=O` the same measures were > 200 µM and > 200 µM.
On to `CC1(C)CNC[C@](C)(OCc2ccccc2)N1`, for which the EC50 was > 200 µM and the IC50 is > 200 µM.
`COC(=O)/C=C1/C(COC(c2ccccc2)(c2ccccc2)c2ccccc2)OC(n2ccc(=O)[nH]c2=O)C1O[Si](C)(C)C(C)(C)C` (configuration not stated): the EC50 is > 200 µM and the IC50 amounted to 10.7 µM.
The like results for `CC(=O)NC1(NC(C)=O)C2CC(C1Cc1ccccc1)C(C)(C)C2C` (configuration not stated) were, in that order, > 724 µM and > 724 µM.
With `O=C(c1cccs1)N(C(=S)N1CCN(c2ccccc2)CC1)c1ccccc1`, the EC50 is > 12.9 µM and the IC50 was > 12.9 µM.
Take `Cc1ccc(C)c(N2C/C(=N\NC(=O)CC#N)C(c3nc4ccccc4s3)C(=O)C2=O)c1` (configuration not stated): the result was inactive.
With `c1ccc(-c2nc3n(n2)CCC(c2ccccc2)S3)cc1` (configuration not stated), the EC50 is 45.7 µM and the IC50 is > 200 µM.
For `C=CCNC(=S)N/C=C\c1c(C(=O)O)cc([N+](=O)[O-])cc1[N+](=O)[O-]` the same measures were > 200 µM and > 100 µM.
On to `CCCCCCN(CCCCCC)CC(=O)Nc1ccc(S(=O)(=O)c2ccc(NC(=O)CN(CCCCCC)CCCCCC)cc2)cc1`, for which the EC50 was > 200 µM and the IC50 amounted to 11.5 µM.
The like results for `O=C1CC2CCC(C1)N2CC1COc2ccccc2O1` (configuration not stated) were, in that order, > 200 µM and > 200 µM.
For `COc1ccc(S(=O)(=O)N(C)c2ccccc2)cc1` the same measures were > 200 µM and 7.76 µM.
The like results for `CC(C)OP(=O)(OC(C)C)C(C(F)(F)F)C(F)(F)F` were, in that order, > 200 µM and > 200 µM.
As to `O=c1cc(-c2ccccc2)[nH]c(=S)[nH]1`, the EC50 was > 200 µM and the IC50 was > 200 µM.
As to `Cc1nc(N)nc(N)c1N1CCN(c2ccc(C(=O)NC(CCC(=O)O)C(=O)O)cc2)CC1` (configuration not stated), the EC50 is > 200 µM and the IC50 worked out at 0.0631 µM.
In the case of `CC[C@@H](CCCC[C@@H]1CC[C@H]2CC(=O)C[C@@H]12)OC`, the EC50 is > 200 µM and the IC50 was found to be 186 µM.
The like results for `N=C(c1ccc(-c2cn3cc(C(=N)N4CCCC4)ccc3n2)cc1)N1CCCC1` were, in that order, 148 µM and > 200 µM.
As for `CCCCCCCCCCCCCCCCN1CCC2SC3CN(CCCCCCCCCCCCCCCC)CCC3SC2C1` (configuration not stated), the EC50 was > 100 µM and the IC50 was > 100 µM.
Turning to `CC(C)CC(NC(=O)OC(C)(C)C)C(=O)Nc1ccc(Nc2nc(F)nc(-c3c4ccccc4cn3C)n2)cc1` (configuration not stated), the EC50 was > 18.2 µM and the IC50 was found to be 16.6 µM.
The like results for `CCC1=CCC(P(=O)(c2ccccc2)c2ccccc2)CC1C` (configuration not stated) were, in that order, > 11.5 µM and > 11.5 µM.
For `CCC12C=CCN3CCC4(C(=C(C(=O)OC)C1)Nc1ccccc14)[C@H]32` (some centres not stated) the same measures were > 120 µM and 5.25 µM.
The like results for `Cc1ccc(S(=O)(=O)c2c(N)n(CCN(C)C)c3nc4ccccc4nc23)cc1` were, in that order, > 200 µM and > 200 µM.
Regarding `NC(=S)NN=C1CSSC1`, the EC50 was > 200 µM and the IC50 was 11.7 µM.
On to `C=C(CC)C(=O)c1ccc(OCC(=O)O)c(Cl)c1Cl`, for which the EC50 is > 200 µM, the result was inactive and the IC50 worked out at 43.7 µM.
As to `Nc1ccc(/C=C/c2ccc3ncccc3c2)cc1`, the EC50 was 0.0631 µM and the IC50 is > 200 µM.
As to `O=C1CCC2CCOc3ccc(O)c1c32` (configuration not stated), the result was inactive.
Take `CCN(CC)CCC(=O)c1ccc(Oc2ccc(Cl)cc2)cc1`: the EC50 was > 200 µM and the concentration for half-maximal inhibition (IC50) is 30.2 µM.
`CCOC(=O)c1cc2c(OCc3ccccc3)c(OC)cc3c2c(n1)N(c1ccc(OC)cc1)C(C)C3` (configuration not stated): the EC50 was > 10.5 µM and the IC50 is > 10.5 µM.
For `COc1cc2c(cc1OC)CN1CCc3ccccc3CC1C2` (configuration not stated), the EC50 was > 200 µM and the IC50 was determined as 14.8 µM.
For `O=C1CC2Sc3ccccc3N=C2N1c1ccc(Cl)cc1Cl` (configuration not stated) the same measures were > 269 µM and 47.9 µM.
On to `N#CCC(=O)N1CCCCCCC1`, for which the EC50 was > 1380 µM and the IC50 is > 1380 µM.
With `O=[N+]([O-])c1ccc(S(=O)(=O)N/N=C/c2ccco2)cc1`, the EC50 was > 316 µM and the IC50 amounted to 166 µM.
For `CCOC(CNc1nn2c(C)nnc2s1)OCC` the same measures were > 200 µM and > 200 µM.
For `CS(=O)(=O)c1ccc(-c2cc(-c3ccc(S(C)(=O)=O)cc3)[n+](-c3cc(-c4ccc(S(C)(=O)=O)cc4)c([O-])c(-c4ccc(S(C)(=O)=O)cc4)c3)c(-c3ccc(S(C)(=O)=O)cc3)c2)cc1` the same measures were > 7.59 µM and > 7.59 µM.
Take `CN[C@H]1CCc2cc(OC)c(OC)c(OC)c2-c2ccc(OC)c(=O)cc21`: the result was inactive.
Turning to `COc1cc(CNC2=NCCC2)cc(OC)c1OC`, the EC50 is > 200 µM and the IC50 worked out at 47.9 µM.
